In ChEMBL document CHEMBL1150018, “New reagents for controlled release of nitric oxide. Structure-stability relationships” (Bioorg Med Chem Lett, 1996):

Assays:
Format in all cases: ADME
[1] = Kinetic constant log k was determined
[2] = Rate of decomposition in aqueous solution (pH 8.0, 30 degree Celsius) at 107 min; conditions: buffer, pH 8, 107 min
[3] = Half life was determined; conditions: rat
[4] = Rate of decomposition in aqueous solution(pH 8.0, 30 degree Celsius)at 350 min; conditions: buffer, pH 8, 350 min
[5] = Rate of decomposition in aqueous solution (pH 8.0, 30 degree Celsius) at 150 min; conditions: buffer, pH 8, 2.5 h
[6] = Rate of decomposition in aqueous solution (pH 8.0, 30 degree Celsius) at 87 min; conditions: buffer, pH 8, 1.45 h
[7] = Rate of decomposition in aqueous solution (pH 8.0, 30 degree Celsius) at 84 min; conditions: buffer, pH 8, 1.4 h
[8] = Rate of decomposition in aqueous solution (pH 8.0, 30 degree Celsius) at 2.6 min; conditions: buffer, pH 8, 156 s
[9] = Rate of decomposition in aqueous solution (pH 8.0, 30 degree Centigrade) at 5.3 min; conditions: buffer, pH 8, 318 s
[10] = Rate of decomposition in aqueous solution (pH 8.0, 30 degree Celsius) at 46 min; conditions: buffer, pH 8, 46 min
[11] = Rate of decomposition in aqueous solution (pH 8.0, 30 degree Celsius) at 35 min; conditions: buffer, pH 8, 35 min
[12] = Rate of decomposition in aqueous solution (pH 8.0, 30 degree Celsius) at 1500 min; conditions: buffer, pH 8, 25 h
[13] = Rate of decomposition in aqueous solution (pH 8.0, 30 degree Celsius) at 690 min; conditions: buffer, pH 8, 11.5 h
[14] = Rate of decomposition in aqueous solution (pH 8.0, 30 degree Celsius) at 350 min; conditions: buffer, pH 8, 350 min
[15] = Rate of decomposition in aqueous solution (pH 8.0, 30 degree Celsius) at 190 min; conditions: buffer, pH 8, 190 min
[16] = Rate of decomposition in aqueous solution (pH 8.0, 30 degree Celsius) at 86 min; conditions: buffer, pH 8, 86 min
[17] = Rate of decomposition in aqueous solution (pH 8.0, 30 degree Celsius) at 580 min; conditions: buffer, pH 8, 580 min
[18] = Rate of decomposition in aqueous solution (pH 8.0, 30 degree Celsius) at 1800 min; conditions: buffer, pH 8, 30 h
[19] = Rate of decomposition in aqueous solution (pH 8.0, 30 degree Celsius) at 2900 min; conditions: buffer, pH 8, 2900 min
[20] = Rate of decomposition in aqueous solution (pH 8.0, 30 degree Celsius) at 270 min; conditions: buffer, pH 8, 4.5 h

Q: Which results are given for CC/C(=C\C(CNC(=O)c1cccnc1)=N\O)C(C)[N+](=O)[O-] (stereo unspecified)?
A: Log k [1]: -2.187; k [2]: 0.0065 min⁻¹; half-life [3]: 1.78 h

Q: Which Log k [1] does the source give for CCC(/C(C)=C/C(CNC(=O)c1cccnc1)=N/O)[N+](=O)[O-] (stereo unspecified) here?
A: The Log k was -2.699.

Q: And the k [4]?
A: The k was 0.002 min⁻¹.

Q: And the half-life [3]?
A: The half-life was 5.83 h.

Q: For CC/C(=C\C(=N\O)C(N)=O)C(CC)[N+](=O)[O-] (stereo unspecified), which Log k [1] is on record?
A: The Log k was -2.347.

Q: What about the k [5] of the same molecule?
A: Its k is 0.0045 min⁻¹.

Q: And the half-life [3]?
A: Its half-life is 2.5 h.

Q: With CC(=O)NCC(/C=C1\CCCCC1[N+](=O)[O-])=N\O (stereo unspecified) as the molecule, how does the k [6] read?
A: Its k is 0.008 min⁻¹.

Q: And the half-life [3]?
A: The half-life was 1.45 h.

Q: For O=C(NCC(/C=C1\CCCCC1[N+](=O)[O-])=N\O)c1cccnc1 (stereo unspecified), which k [7] is on record?
A: The k was 0.0083 min⁻¹.

Q: And the half-life [3]?
A: The half-life was 1.4 h.

Q: What does the source list for COCC(/C(C)=C/C(=N/O)C(N)=O)[N+](=O)[O-] (stereo unspecified)?
A: Log k [1]: 0.569; k [8]: 0.27 min⁻¹; half-life [3]: 0.0433 h

Q: Which Log k [1] does the source give for COCC(/C(C)=C/C(CNC(=O)c1cccnc1)=N/O)[N+](=O)[O-] (stereo unspecified) here?
A: Its Log k is -0.886.

Q: What about the k [9] of the same molecule?
A: Its k is 0.13 min⁻¹.

Q: And the half-life [3]?
A: Its half-life is 0.0883 h.

Q: With CC/C(=C\C(=N\O)C(N)=O)C(C)[N+](=O)[O-] (stereo unspecified) as the molecule, how does the Log k [1] read?
A: The Log k was -1.824.

Q: What about the k [10] of the same molecule?
A: Its k is 0.00025 s⁻¹.

Q: What about the half-life [3] of the same molecule?
A: Its half-life is 0.767 h.

Q: With NC(=O)C(/C=C1\CCCCC1[N+](=O)[O-])=N\O (stereo unspecified) as the molecule, how does the k [11] read?
A: The k was 0.02 min⁻¹.

Q: What about the half-life [3] of the same molecule?
A: The half-life was 0.583 h.

Q: Which results are given for CC/C(=C\C(CNC(C)=O)=N\O)C(C(C)C)[N+](=O)[O-] (stereo unspecified)?
A: k [12]: 0.00046 min⁻¹; Log k [1]: -3.337; half-life [3]: 25 h

Q: What does the source list for CC/C(=C\C(=N\O)C(N)=O)C(C(C)C)[N+](=O)[O-] (stereo unspecified)?
A: Log k [1]: -3; k [13]: 0.001 min⁻¹; half-life [3]: 11.5 h

Q: Which results are given for CC/C(=C\C(CNC(=O)c1cccnc1)=N\O)C(CC)[N+](=O)[O-] (stereo unspecified)?
A: k [14]: 0.002 min⁻¹; Log k [1]: -2.699; half-life [3]: 5.83 h

Q: Which results are given for CC(C)/C(=C\C(=N\O)C(N)=O)C(C)[N+](=O)[O-] (stereo unspecified)?
A: Log k [1]: -2.432; k [15]: 0.0037 min⁻¹; half-life [3]: 3.17 h

Q: For CC/C(=C\C(CNC(C)=O)=N\O)C(C)[N+](=O)[O-] (stereo unspecified), which Log k [1] is on record?
A: The Log k was -2.092.

Q: What about the k [16] of the same molecule?
A: The k was 0.0081 min⁻¹.

Q: And the half-life [3]?
A: Its half-life is 1.43 h.

Q: With CC(C)/C(=C\C(CNC(=O)c1cccnc1)=N\O)C(C)[N+](=O)[O-] (stereo unspecified) as the molecule, how does the k [17] read?
A: Its k is 0.0012 min⁻¹.

Q: And the Log k [1]?
A: The Log k was -2.921.

Q: What about the half-life [3] of the same molecule?
A: The half-life was 9.67 h.

Q: For CC/C(=C\C(CNC(=O)c1cccnc1)=N\O)C(C(C)C)[N+](=O)[O-] (stereo unspecified), which Log k [1] is on record?
A: Its Log k is -3.42.

Q: And the k [18]?
A: Its k is 0.00038 min⁻¹.

Q: What about the half-life [3] of the same molecule?
A: Its half-life is 30 h.

Q: Which Log k [1] does the source give for CC/C(=C\C(=N\O)C(N)=O)C([N+](=O)[O-])C(C)(C)C (stereo unspecified) here?
A: Its Log k is -3.62.

Q: And the half-life [3]?
A: The half-life was 48.3 h.

Q: What about the k [19] of the same molecule?
A: The k was 0.00024 min⁻¹.

Q: What does the source list for CC/C(=C\C(CNC(C)=O)=N\O)C(CC)[N+](=O)[O-] (stereo unspecified)?
A: Log k [1]: -2.585; half-life [3]: 4.5 h; k [20]: 0.0026 min⁻¹
